{"source": "patent US11642344B2", "about": "“Cholesteryl ester transfer protein (CETP) inhibitor and pharmaceutical compositions comprising said inhibitor for use in the treatment or prevention of cardiovascular diseases” (NewAmsterdam Pharma B.V., priority 2014, dated 2023)", "tested_on": "HDL-C, LDL-C, total cholesterol, triglycerides", "experiment": "Clinical repeated dose study: HDL-C, LDL-C, total cholesterol, triglycerides and secondary lipid variables", "type": "in vivo, human", "conditions": "for Maximum % change from baseline in HDL-C concentration / Maximum % change from baseline in LDL-C concentration / Maximum % change from baseline in Total cholesterol / Maximum % change from baseline in Triglycerides: repeated oral doses, steady state, mean", "experimental": "The clinical study was a repeated dose study in 5 groups of Caucasian male subjects aged 18 to 55 years. Each subject received a single oral dose of Compound A/placebo on Day 1, followed by once daily doses on Days 8 to 35 (5 mg Compound A/placebo—Group 1) or Days 8 to 28 (1, 2.5, 10 and 25 mg Compound A/placebo—Groups 2 to 5). All doses were administered at the study center after a standard breakfast. Subjects in each dose group were allocated to study treatment in a ratio of 10 Compound A to 2 placebo. Blood samples for pharmacokinetic and pharmacodynamic (CETP activity, CETP concentration, HDL-C, LDL-C, total cholesterol, triglycerides) assessments were collected from prior to each dose and at intervals throughout the study until 336 hours after the last dose. Secondary pharmacodynamic endpoints (including apolipoproteins A1, A2, B, and E, HDL2-C, HDL3-C, phospholipids, HDL-free cholesterol [HDL-FC], HDL-cholesteryl ester [HDL-CE], HDL-phospholipids [HDL-PL], HDL-triglycerides [HDL-TG], and LDL particle size) were measured at intervals until the last day of dosing. Urine was collected for pharmacokinetics from pre dose and at intervals up to 72 hours after the first and last dose. Safety assessments including adverse events, blood pressure and pulse rate, ECGs, laboratory safety tests (including aldosterone) and physical examinations were conducted throughout both studies.\nPlasma and urine concentrations of Compound A were determined using validated liquid chromatography with tandem mass spectrometry (LC/MS/MS) methods. The lower limit of quantification (LLQ) for both assays was 0.500 ng/mL. Plasma concentration of CETP was determined using a validated enzyme-linked immunosorbent assay (ELISA) method with a lower limit of quantification (LLQ) of 0.500 μg/mL. CETP activity was determined as the rate of [^3H]-labeled CE transfer from donor HDL to acceptor VLDL/LDL. [^3H]CE-labeled HDL was added to human plasma and incubated for 4 hours at 37° C. Non-HDL lipoproteins were precipitated and separated from HDL, and the amount of radioactivity in the supernatant was quantitated. CETP activity was determined as the difference of the radioactivity between the samples incubated at 37° C. and 4° C. HDL-C and LDL-C were measured by homogenous enzymatic colorimetric assay using a Modular analyser (Roche Diagnostics). Total cholesterol and triglycerides were measured by homogenous enzymatic assay using a Modular analyser (cholesterol oxidase peroxidase-peroxidase aminophenazone phenol [CHOP-PAP]) method and a glycerol phosphate oxidase [GPO-PAP] method, respectively. ApoA1, ApoA2, ApoB and ApoE were measured by immunoturbidimetry using reagents from Rolf Greiner Biochemica (Germany) and N-apoprotein standard serum from Siemens (Germany). LDL particle size was determined by gradient gel electrophoresis. HDL fraction was separated by a combined ultracentrifugation-precipitation method (Beta-quantification). HDL-2 and HDL-3 fractions were then separated by further ultracentrifugation. Total-cholesterol in HDL, HDL-2 and HLD-3 fractions, free cholesterol in HDL fraction, triglycerides in HDL fraction and phospholipids in plasma and HDL-fraction were measured using enzymatic methods and reagents from Diasys Diagnostics (Germany). The measurements were performed on an Olympus AU600 automatic analyzer and were calibrated using secondary standards from Roche Diagnostics (Total-cholesterol, triglycerides) and Diasys Diagnostics (free cholesterol, phospholipids), respectively. Esterified cholesterol was calculated as the difference between total-cholesterol and free cholesterol.\nThe sample sizes for the study were chosen based on practical considerations rather than statistical power. The numbers of subjects in each group were considered to be adequate to assess the main objectives of each study. Subjects were allocated to Compound A or placebo in each group by means of a computer-generated randomization code. […]", "data": [{"compound": "CCOC(=O)N1c2ccc(C(F)(F)F)cc2[C@@H](N(Cc2cc(C(F)(F)F)cc(C(F)(F)F)c2)c2ncc(OCCCC(=O)O)cn2)C[C@H]1CC", "note": "[Compound A, {4-[(2-{[3,5-bis(trifluoromethyl)benzyl][(2R,4S)-1-(ethoxycarbonyl)-2-ethyl-6-(trifluoromethyl)-1,2,3,4-tetrahydroquinolin-4-yl]amino}pyrimidin-5-yl)oxy]butanoic acid}]", "values": [{"measurement": "Maximum % change from baseline in HDL-C concentration", "setting": "1 mg once daily", "value": 37.9, "unit": "%"}, {"measurement": "Maximum % change from baseline in LDL-C concentration", "setting": "1 mg once daily", "value": "−29.6", "unit": "%"}, {"measurement": "Maximum % change from baseline in Total cholesterol", "setting": "1 mg once daily", "value": "−12.7", "unit": "%"}, {"measurement": "Maximum % change from baseline in Triglycerides", "setting": "1 mg once daily", "value": "−50.2", "unit": "%"}, {"measurement": "Maximum % change from baseline in HDL-C concentration", "setting": "2.5 mg once daily", "value": 95.6, "unit": "%"}, {"measurement": "Maximum % change from baseline in LDL-C concentration", "setting": "2.5 mg once daily", "value": "−39.1", "unit": "%"}, {"measurement": "Maximum % change from baseline in Total cholesterol", "setting": "2.5 mg once daily", "value": "−7.9", "unit": "%"}, {"measurement": "Maximum % change from baseline in Triglycerides", "setting": "2.5 mg once daily", "value": "−45.8", "unit": "%"}, {"measurement": "Maximum % change from baseline in HDL-C concentration", "setting": "5 mg once daily", "value": 118, "unit": "%"}, {"measurement": "Maximum % change from baseline in LDL-C concentration", "setting": "5 mg once daily", "value": "−41.7", "unit": "%"}, {"measurement": "Maximum % change from baseline in Total cholesterol", "setting": "5 mg once daily", "value": "−1.4", "unit": "%"}, {"measurement": "Maximum % change from baseline in Triglycerides", "setting": "5 mg once daily", "value": "−20.3", "unit": "%"}, {"measurement": "Maximum % change from baseline in HDL-C concentration", "setting": "10 mg once daily", "value": 140, "unit": "%"}, {"measurement": "Maximum % change from baseline in LDL-C concentration", "setting": "10 mg once daily", "value": "−43.6", "unit": "%"}, {"measurement": "Maximum % change from baseline in Total cholesterol", "setting": "10 mg once daily", "value": 3.7, "unit": "%"}, {"measurement": "Maximum % change from baseline in Triglycerides", "setting": "10 mg once daily", "value": "−22.2", "unit": "%"}, {"measurement": "Maximum % change from baseline in HDL-C concentration", "setting": "25 mg once daily", "value": 136, "unit": "%"}, {"measurement": "Maximum % change from baseline in LDL-C concentration", "setting": "25 mg once daily", "value": "−53.2", "unit": "%"}, {"measurement": "Maximum % change from baseline in Total cholesterol", "setting": "25 mg once daily", "value": 7.5, "unit": "%"}, {"measurement": "Maximum % change from baseline in Triglycerides", "setting": "25 mg once daily", "value": "−31.4", "unit": "%"}, {"measurement": "changes in LDL particle size", "setting": "repeated doses 1 to 25 mg", "value": "no noteworthy changes"}]}]}
